# Where no end group is shown, it is not given here.
# Experiments:
# [1] = tested on: human peripheral blood mononuclear cells (PBMCs); assay: LPS antagonist activity: TNFα secretion by stimulated human PBMCs (capture ELISA); assay type: cell-based; settings: 1 μg/ml + W3110 (10 ng/ml), 8 hr
# Protocol: W3110 LPS (also cultured at 37° C.) from 1 ng/ml to 100 ng/ml alone and W3110 LPS (10 ng/ml) mixed with synthetic lipid IVA (1 μg/ml) were used as controls. For this, PBMCs were obtained from 50 ml of whole blood and resuspended in complete medium (CM; RPMI containing pyruvate, glutamine, PenStrep, and 10% endotoxin-free human AB serum (Life Technologies) at a density of 6×10^6 PBMCs/ml. CM containing W3110 LPS, MLK986 LPS or synthetic lipid IVA was placed into duplicate wells of a 96-well flat bottom culture plate (Costar) at double the target final concentration. An equal volume of CM containing the PBMCs then was added to these wells and the culture plates were incubated at 37° C. in 5% CO2 for 8 hr. The supernatants were then removed and stored at […] Quantitation of TNFα, IL-1β, and IL-6 in these culture supernatants was achieved by capture ELISA (R&D Systems).
# BALB/c mice [2] = assay: Adjuvant activity with protein antigen gp120: anti-gp120 serum IgG by ELISA; assay type: in vivo
# Protocol: Vaccine preparations containing an LPS antagonist and a protein antigen can be prepared in the following manner. Each vaccine preparation contained 5 μg of fully glycosylated endotoxia-free HIV-1MN gp120 (Virostat Cat. No. 8919, Lot AM735). Preparations comprised of gp120 and LPS antagonist were formulated essentially as outlined in Example 2 above except that each dose contained 5 μg of gp120 combined with a range of LPS antagonist doses (from 1 μg to 10 μg). The LPS antagonist was isolated from MLK986 cultured at 37° C. as described above.
# Groups of 3 BALB/c mice were given a single dose of a given preparation of gp120 and LPS antagonist subcutaneously (primary vaccination). To determine the immunogenicity of the antigen in the absence of LPS antagonist, a group of BALB/c mice were vaccinated with 5 μg gp 120 formulated alone. For comparative purposes, an additional group of mice were vaccinated with 5 μg of gp120 formulated with Alum, as described (Coligan, et al., 1994, supra).
# To measure the immunogenicity of each formulation, sera were collected from the mice in each group before and on day 14 after primary vaccination, as described in Example 2 above. On day 21 after the primary vaccination, mice were given a booster vaccination containing […] of gp120 formulated with matched doses of LPS antagonist, as was given in the primary vaccination. Ten and 17 days after the boost, venous blood was collected from the mice, and sera were obtained as outlined above. The level of anti-gp120 IgG in pooled serum samples was determined by ELISA as described in Example 2 above, except that gp120 was used in place of Hep-Tat in the first coating step. The results of the ELISA were obtained by reading the optical density of each well using a Molecular Dynamics ELISA plate reader and are shown in Table 3 below. The data are presented as dilution of the sera to achieve 50% saturation.
# BALB/c mice [3] = assay: Adjuvant activity with peptide antigen Hep-Tat: Hep-Tat-specific serum IgG by ELISA; assay type: in vivo
# Protocol: Vaccine preparations containing a peptide antigen and an LPS antagonist were prepared in the following manner. Each vaccine preparation contained […] of the vaccine peptide (herein designated “Hep-Tat”) that corresponds to the heparin-binding domain of the HIV-1 regulatory protein Tat and is comprised of the following sequence (GLGIS YGRKKRRQR; SEQ ID NO: 1). The peptide antigen was prepared synthetically as a Multiple Antigen Peptide (MAPS;Genosys). To formulate the preparations comprised of Hep-Tat and LPS antagonist (purified as outlined above), […] of Hep-Tat was combined with a range of LPS antagonist doses (from […]). The LPS antagonist was isolated from MLK986 cultured at 37° C. as described in. Example 1.
# Groups of three BAL Blc mice were injected intraperitoneally with a single dose of a given preparation of Hep-Tat and LPS antagonist (i.e., primary vaccination). To determine the immunogenicity of the antigen in the absence of LPS antagonist, a group of BALB/c mice were vaccinated with 50 μg Hep-Tat formulated-alone. For comparative purposes, an additional group of mice was vaccinated with 50 μg Hep-Tat formulated with Alum, as described (Coligan, et al., 1994, supra).
# To measure the immunogenicity of each formulation, venous blood was collected from the mice in each group before and on day 14 after primary vaccination, as described (Coligan, et al., 1994, supra). Serum was then obtained from each of these blood samples using standard techniques (Coligan, et al., 1994, supra). On day 21 after the primary vaccination, mice were given a booster vaccination containing the same dose of Hep-Tat and LPS antagonist or alum as was given in the primary vaccination. Seven days after the boost, venous blood was collected from the mice in each, and sera were obtained as outlined above. Each of the serum samples from individual groups were pooled and the level of Hep-Tat-specific IgG was ascertained by ELISA. In short, plastic 96 well ELISA plates (Immunol 2 Dynatech) were coated with Hep-Tat, by adding […] of Hep-Tat at 10 μg/ml suspended in PBS (Phosphate Buffer Saline) pH 7.4 in each well, and incubating overnight at 4° C. The plates were subsequently washed to remove unbound peptide and then 100 μl of blocking solution (comprised of 1% (w/v) Bovine Serum Albumin (BSA; Sigma) suspended in PBS) was added to each well. […] The result of the ELISA were obtained by reading the optical density of each well using a Molecular Dynamics ELISA plate reader. […]
# [4] = Pre (before primary vaccination), pooled sera
compound,measurement,setting,value
CCCCCCCCCCC[C@@H](O)CC(=O)N[C@H]1[C@H](OC[C@H]2O[C@H](OP(=O)(O)O)[C@H](NC(=O)C[C@H](O)CCCCCCCCCCC)[C@@H](OC(=O)C[C@H](O)CCCCCCCCCCC)[C@@H]2O)O[C@H](CO)[C@@H](OP(=O)(O)O)[C@@H]1OC(=O)C[C@H](O)CCCCCCCCCCC [Lipid IVA],TNFa,[1],<30 pg/mL
Gp120: fully glycosylated endotoxin-free HIV-1MN gp120 (Virostat Cat. No. 8919),"Gp120-specific serum antibodies (anti-gp120 IgG), dilution of the sera to achieve 50% saturation","BALB/c mice [2]; 5 μg gp120 alone, subcutaneous, Day 14",<10
same,immunogenicity of the antigen dose,"BALB/c mice [2]; 5 μg of gp120 formulated with Alum, preliminary experiments",marginally immunogenic
same,"Gp120-specific serum antibodies (anti-gp120 IgG), dilution of the sera to achieve 50% saturation",BALB/c mice [2]; [4],−10
same,"Gp120-specific serum antibodies (anti-gp120 IgG), dilution of the sera to achieve 50% saturation","BALB/c mice [2]; gp120 alone, subcutaneous, boosted, Day 21",<10
"Hep-Tat: vaccine peptide, heparin-binding domain of HIV-1 Tat (GLGIS YGRKKRRQR; SEQ ID NO: 1), Multiple Antigen Peptide (GLGISYGRKKRRQR; also: multiple antigen peptide format)","Tat-specific antibodies (Hep-Tat-specific IgG), dilution of the sera to achieve the 50% saturation","BALB/c mice [3]; 50 μg Hep-Tat alone, intraperitoneal, boosted, Day 21",<10
same,"Tat-specific antibodies (Hep-Tat-specific IgG), dilution of the sera to achieve the 50% saturation","BALB/c mice [3]; 50 μg Hep-Tat alone, intraperitoneal, Day 14",<10
same,immunogenicity of the antigen dose,"BALB/c mice [3]; 50 μg of Hep-Tat formulated with Alum (Pierce), preliminary experiments",marginally immunogenic
same,"Tat-specific antibodies (Hep-Tat-specific IgG), dilution of the sera to achieve the 50% saturation",BALB/c mice [3]; [4],<10

# From patent publication US6759241B1, “Adjuvant comprising a lipopolysaccharide antagonist” (priority 1999, dated 2004)
